Patent US10807957B2, “Tetradentate chelating monoquinoline derivative, manufacturing method thereof, and application of same as metal ion regulator for neurodegenerative disease” (GUANGDONG UNIVERSITY OF TECHNOLOGY, priority 2016, dated 2020)

Experiment: Affinity constants for Cu2+ by competitive chelation with UV/Vis monitoring
Assay type: binding
Conditions: Cu2+ versus Zn2+, pH 7.4
Method: Estimation of affinity constants of compounds of general formula (I) with metal ions: […]
Affinity Constants for Cu^2:
The following mother solutions were prepared: (A) ligand L=TDMQ-n, 300 μM in 20 mM Tris.HCl pH 7.4, 150 mM NaCl; (B) Competing ligands (namely NTA, EDTA, EDDA, EGTA, or CDTA), 300 μM in 20 mM Tris.HCl pH 7.4, 150 mM NaCl; (C) CuCl2, 15 mM in H2O. In the UV/Vis cuvette, 100 μL of (A), 100 μL of (B), 1800 μL of 20 mM Tris.HCl pH 7.4, 150 mM NaCl, and 2 μL of (C) were added in that order. The final concentrations of L, Competing ligand (LC), and Cu^2+ were 15 μM.
The spectrum of the ligand L (2 μL of H2O instead of 2 μL of (C)) was recorded according to above conditions; and the spectrum of [Cu^2+−L] (100 μL of 20 mM Tris.HCl pH 7.4, 150 mM NaCl, instead of 100 μL of (B)) was recorded according to above conditions. All ligands and complexes studied followed the Beer-Lambert law in the experimental conditions used.
The equations of complexation are as follows: […]
It can be deduced that at the equilibrium:
UV/Vis monitoring at 383 nm allowed to determine the absorbance of the competitive chelation mixture (Amix), the absorbance of L in the absence of Cu^2+ (AL), and the absorbance of CuL in the absence of competing ligand (ACu-L). The proportion of Cu^2+ chelated by L was calculated as x=(AL-Amix)/(AL-ACu-L). Experiments were performed in triplicate.

Structure (SMILES) | difference between binding constants for copper and zinc
CN(C)CCCNCc1ccc2c(Cl)cc(Cl)c(N)c2n1 [TDMQ-19, N^1-((8-amino-5,7-dichloroquinolin-2-yl)methyl)-N^3,N3-dimehypropane-1,3-diamine] | 10 orders of magnitude
CN(C)CCNCCc1ccc2c(Cl)cc(Cl)c(N)c2n1 [TDMQ-20, N^1-(2-(8-amino-5,7-dichloroquinolin-2-yl)ethyl)-N^2,N^2-dimethylethane-1,2-diamine] | 12 orders of magnitude
